Test results: US20250353825A1, “CANNABICYCLOL DERIVATIVES AND PREPARATION METHODS THEREOF” (priority 2023, published 2025)
Converted amounts (≈) assume the structure as drawn. Where two headings read alike, the source gives them in different places.

Legend:
Assay type in all cases: cell-based
GSC-3 (3#-GSC) = assay: MTS cell viability assay, glioblastoma stem cells GSC-3 (3#-GSC); details: for IC50: GSC-3, Table 8, cancer stem cells, preferred compounds, read-out: IC50 3#-GSC; for selective anti-glioma stem cell viability: judged in words from preliminary viability screening against 3#-GSC, 293T and U251
Method: (§1) Primary viability screening: (1) the synthesized compounds 3a to 13d were respectively dissolved in DMSO to prepare a 40 μg/mL cannabicyclol and cannabicyclol derivative solutions.
(§2) (2) A control group: a 200 μL DMSO solvent.
(§3) (3) The solutions of compounds 3a to 13d were diluted in a twofold gradient to obtain cannabicyclol and cannabicyclol derivative solutions at concentrations of 40 μg/mL, 20 μg/mL, 10 μg/mL, 5 μg/mL, 2.5 μg/mL, 1.25 μg/mL, and 0.625 μg/mL, and 0.3125 μg/mL, respectively.
(§4) (4) Three glioblastoma stem cells (GSC-3, GSC-12, and GSC-18), three pancreatic cancer cell-derived stem cells (PANC-1-CSC, BXPC-3-CSC, and ASPC1-CSC), three liver cancer cell-derived stem cells (HepG2-CSC, MHCC97H-CSC, and SMMC7721-CSC), HEK-293T cells, 16 tumor cells (U251, U87, T98G, PANC1, BXPC3, ASPC1, HepG2, MHCC97H, SMMC7721, PC3, SKOV3, MDA-MB231, A549, HCT116, HEC-1B, MKN28), and differentiated glioblastoma stem cells (GSC-3diff and GSC-12diff) derived from GSC-3 and GSC-12 (all of the cells were provided by the Laboratory of Tumor Animal Model Preparation and Application Research, West China Hospital, Sichuan University) were inoculated into a 96-well plate at a concentration of 2×10^4 cells/well, and 100 μL of culture medium was then added to each well;
(§5) (5) 2) HEK-293T, GSC-3diff, GSC-12diff, and the 16 tumor cells were added with DMEM, 10% FBS, and 1% double antibody culture medium. Cancer stem cells (CSCs) were added with serum-free stem cell medium consisting of DMEM/F12, EGF (20 ng/mL), bFGF (20 ng/mL), B27 (1×), and 1% double antibody culture medium.
(§6) (6) Inoculated cells were put into a cell culture incubator for 24 hours, and after the cells were well adhered to the wall, the culture medium in the 96-well plate was discarded.
(§7) (7) 200 μL cannabicyclol and cannabicyclol derivatives solutions at different concentrations were added to the cultured cells.
(§8) (8) The experiment was set up with 3 replicates.
(§9) (9) The 96-well plate was placed in a cell culture incubator, and incubation was continued at 37° C. and 5% CO2 for 72 hours. Then, 100 μL of cannabicyclol and cannabicyclol derivative solution per well was discarded (100 μL of DMSO solvent was discarded for the control group), and 20 μL of LMTS (CellTiter AQueous Non-Radioactive Cell Proliferation Assay, #G3581) was mixed and continued to be placed in the cell incubator for 2 hours of incubation.
(§10) (10) The absorbance value at 490 nm was measured on an enzyme labeling apparatus, and the IC50 value was calculated.

U251 = assay: MTS cell viability assay, U251; details: for IC50: Homo sapiens, U-251, Table 8, tumor cells, preferred compounds, read-out: IC50 U251
Method: as §1, §2, §3, §4, §5, §6, §7, §8, §9, §10

[1] = MTS cell viability assay, HEK-293T (293T) normal cells; details: human
Method: as §1, §2, §3, §4, §5, §6, §7, §8, §9, §10

HEK-293T = assay: as above; details: Homo sapiens, HEK-293T; Table 8, normal cells, preferred compounds; read-out: IC50 293T
Method: as §1, §2, §3, §4, §5, §6, §7, §8, §9, §10

[2] = primary viability screening, 72 hours, MTS, test concentration not stated
[3] = HEK-293T (293T) normal cells, primary viability screening, 72 hours, MTS, test concentration not stated, read-out: Cell viability in 293T (%)
[4] = primary viability screening, 72 hours, MTS, test concentration not stated, read-out: Cell viability in 293T (%)

Structure (SMILES) | IC50 (GSC-3 (3#-GSC)) [µg/mL] | Cell viability in 3#-GSC (%) (GSC-3 (3#-GSC); [2]) | IC50 (U251) [µg/mL] | Cell viability in U251 (%) (U251; [2]) | viability at 72 h [1, 3] [%] | IC50 (HEK-293T) [µg/mL] | Cell viability in 3#-GSC (%) (GSC-3 (3#-GSC); 72 h) | selective anti-glioma stem cell viability (GSC-3 (3#-GSC)) | Cell viability in U251 (%) (U251; human, 72 h) | viability at 72 h [1] [%] | viability at 72 h [1, 4] [%]
CCCCCc1cc(OC(=O)CN(C)C)c2c(c1)OC1(C)CCC3C1C2C3(C)C (centres unmarked) [Compound 9m] | 5.44 (≈ 13.6 µM) | 42 | > 40 | ≥100 | ≥ 100 | 22.9 (≈ 57.2 µM) | – | – | – | – | –
CCCCCc1cc2c(c(-c3ccccc3)c1)C1C3C(CCC3(C)O2)C1(C)C (centres unmarked) [Compound 13b] | 4.73 (≈ 12.6 µM) | – | > 40 | – | – | > 40 | 50 | both the viability and selectivity were significantly reduced | ≥100 | 75 | –
CC12CCC3C1C(c1c(O)cc(-c4ccsc4)cc1O2)C3(C)C (centres unmarked) [Compound 3t] | 3 (≈ 9.17 µM) | – | 14 (≈ 42.8 µM) | – | – | 16.4 (≈ 50.2 µM) | 50 | weak selective anti-glioma stem cell viability | 98 | ≥ 100 | –
Cc1cc(C)cc(-c2cc(O)c3c(c2)OC2(C)CCC4C2C3C4(C)C)c1 (centres unmarked) [Compound 3o] | – | – | – | – | – | – | 64 | – | 88 | 81 | –
C#CCOc1cc(CCCCC)cc2c1C1C3C(CCC3(C)O2)C1(C)C (centres unmarked) [Compound 7e] | – | ≥100 | – | 72 | 75 | – | – | – | – | – | –
CCCCCc1cc(O)c2c(c1)OC1(C)CCC3C(c4ccccc4)C2C31 (centres unmarked) [Compound 3x] | – | 70 | – | 77 | 97 | – | – | – | – | – | –
CCCCCc1cc(OCCC)c2c(c1)OC1(C)CCC3C1C2C3(C)C (centres unmarked) [Compound 7d] | – | ≥100 | – | 82 | 77 | – | – | – | – | – | –
CC12CCC3C1C(c1c(O)cc(-c4ccccc4)cc1O2)C3(C)C (centres unmarked) [Compound 3k] | – | – | – | – | – | – | 52 | – | 15 | 45 | –
CCCCCc1cc(O)c2c(c1)OC1(C)CCC3C(CC)C2C31 (centres unmarked) [Compound 3v] | – | 30 | – | 71 | – | – | – | – | – | – | 79
CCCCCc1cc(OC(=O)C(C)CC)c2c(c1)OC1(C)CCC3C1C2C3(C)C (centres unmarked) [Compound 9a] | 4.32 (≈ 10.8 µM) | 52 | > 40 | ≥100 | ≥ 100 | > 40 | – | – | – | – | –
C=CCOc1cc(CCCCC)cc2c1C1C3C(CCC3(C)O2)C1(C)C (centres unmarked) [Compound 7a] | – | ≥100 | – | 81 | 77 | – | – | – | – | – | –
CCCCCc1cc(OC(=O)CN2CCOCC2)c2c(c1)OC1(C)CCC3C1C2C3(C)C (centres unmarked) [Compound 9k] | 5.37 (≈ 12.2 µM) | 43 | > 40 | ≥100 | ≥ 100 | > 40 | – | – | – | – | –
CC12CCC3C1C(c1c(O)cc(-c4ccc(F)cc4)cc1O2)C3(C)C (centres unmarked) [Compound 3r] | – | – | – | – | – | – | 43 | – | 76 | 45 | –
CCCCCc1cc(OC(=O)CCN(C)C)c2c(c1)OC1(C)CCC3C1C2C3(C)C (centres unmarked) [Compound 9n] | 7.79 (≈ 18.8 µM) | 32 | 33.4 (≈ 80.9 µM) | 89 | ≥ 100 | 35.2 (≈ 85 µM) | – | – | – | – | –
CC12CCC3C1C(c1c(O)cccc1O2)C3(C)C (centres unmarked) [Compound 3b] | – | 32 | – | 97 | – | – | – | selective anti-glioma stem cell viability | – | – | 97
CCCc1cc(O)c2c(c1)OC1(C)CCC3C1C2C3(C)C (centres unmarked) [Compound 3d] | – | 40 | – | 71 | 91 | – | – | – | – | – | –
CCCCCc1cc(OCC(=O)NCCc2cc3ccccc3[nH]2)c2c(c1)OC1(C)CCC3C1C2C3(C)C (centres unmarked) [Compound 7h] | – | 72 | – | ≥100 | 87 | – | – | – | – | – | –
CCCCCc1cc(OC(=O)/C=C/c2ccccc2)c2c(c1)OC1(C)CCC3C1C2C3(C)C (centres unmarked) [Compound 9g] | – | ≥100 | – | ≥100 | ≥ 100 | – | – | – | – | – | –
CC(C)(C)c1ccc(-c2cc(O)c3c(c2)OC2(C)CCC4C2C3C4(C)C)cc1 (centres unmarked) [Compound 3p] | – | – | – | – | – | – | 67 | weak selective anti-glioma stem cell viability | 97 | ≥ 100 | –
CCCCCc1cc(OC(=O)CC)c2c(c1)OC1(C)CCC3C1C2C3(C)C (centres unmarked) [Compound 9c] | 9.32 (≈ 25.2 µM) | 28 | 24.7 (≈ 66.7 µM) | ≥100 | ≥ 100 | > 40 | – | both the viability and selectivity were maintained | – | – | –
CCCCCc1cc(OC(=O)CCCCOc2cc(=O)oc3ccccc23)c2c(c1)OC1(C)CCC3C1C2C3(C)C (centres unmarked) [Compound 9t] | – | – | – | – | – | – | ≥100 | – | ≥100 | ≥ 100 | –
CCCCCc1cc(OC)c2c(c1)OC1(C)CCC3C1C2C3(C)C (centres unmarked) [Compound 7b] | – | ≥100 | – | 91 | 95 | – | – | – | – | – | –
CCCCCc1cc(OC(=O)/C=C/c2ccc(OC)cc2)c2c(c1)OC1(C)CCC3C1C2C3(C)C (centres unmarked) [Compound 9h] | – | 90 | – | ≥100 | ≥ 100 | – | – | – | – | – | –
CCCCCc1cc(OCC)c2c(c1)OC1(C)CCC3C1C2C3(C)C (centres unmarked) [Compound 7c] | – | ≥100 | – | 80 | 79 | – | – | – | – | – | –
CCCCCc1cc(OC(=O)CCN2CCOCC2)c2c(c1)OC1(C)CCC3C1C2C3(C)C (centres unmarked) [Compound 9l] | 2.9 (≈ 6.37 µM) | 32 | 24.7 (≈ 54.3 µM) | 90 | 93 | > 40 | – | – | – | – | –
CCCCCc1cc(OCc2cn(S(=O)(=O)c3ccc(C)cc3)nn2)c2c(c1)OC1(C)CCC3C1C2C3(C)C (centres unmarked) [Compound 7i] | – | 50 | – | 21 | 71 | – | – | – | – | – | –
